Experimental data from patent publication US5032597A, “Method of using phenylquinolinecarboxylic acids and derivatives for lymthoid leukemia treatment in a mammal” (priority 1987, dated 1991).
Converted amounts (≈) assume the structure as drawn. “And” between values parts separate entries of the source, which are not always exact repeats. Equal values may be shown once.

What was measured:
[1] = test system: human colon carcinoma cells HCT-15; assay: Human colon tumor test in vitro, HCT-15 cell growth inhibition; format: cell-based; details: for IC50: Homo sapiens, HCT-15, 72 h, read-out: in vitro HCT-15 ID50 (50 percent inhibition of number of doublings); for in vitro HCT-15 ID50 (50 percent inhibition of number of doublings): HCT-15 cells, compound day 1 to day 4, 4320 min
Outline: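 HCT-15 human colon adenocarcinoma cells in RPMI 1640 with 10% heat-inactivated FCS, compound added on day 1 and cells counted by hemocytometer on day 4. ID50 is the concentration (μg/ml) halving the number of doublings, from log-log dose-response plots.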

[2] = test system: human colon tumor HCT-15; assay: Human colon tumor HCT-15 in athymic mice; format: in vivo, Swiss NU/NU athymic mice; details: for Average Tumor Weight, Day 7 (day treatment was started) / Average Tumor Weight, Day 21 / Net Tumor Weight gain, Day 21 / Tumor Growth Inhibition, Day 21: 5 days from day 7; for toxicity: 40 mg/kg i.p., athymic mice
Method: The compounds of Example 1 and 91 were also tested for effectiveness against a human colon tumor implanted in athymic mice.
The animals used were Swiss NU/NU athymic mice, weighing 20-22 g each at the start of the test. The test group consisted of twelve mice, seven males and five females. The HCT-15 tumor cell line, derived from a patient with adenocarcinoma of the colon, was maintained in culture. The tumor was implanted in each of the test mice by the subcutaneous injection in the flank region of 0.2 ml of physiological saline containing 10^7 HCT-15 cultured cells. Tumors appeared within 72 hours and treatment started one week after tumor inoculation.
Test compounds, suspended in methocel (0.5% in water) or dissolved in water, were injected intraperitoneally once daily for five consecutive days starting on day seven relative to the day of tumor inoculation (day 0). The body weight and the size of the tumor were determined daily. Tumor size was determined by two-dimensional caliper measurements. Tumor weight was estimated from the formula: [formula] tumor weight in which 1=length and w=width of the tumor in mm. The net tumor weight was determined by subtracting from the actual tumor weight at the time of evaluation the initial estimated tumor weight at the time treatment was started (day 7). Drug effectiveness was assessed on the basis of inhibition of the gain in net tumor weight in the treated (T) compared to that of the control (C) mice. Percent tumor growth inhibition was calculated by the formula: [formula]

[3] = test system: L1210 leukemia; assay: Lymphoid Leukemia L1210, survival of tumored mice; format: in vivo, CD2F1 mice; details: Mus musculus, L1210, ip, 720 h
Outline: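 Male CD2 F1 mice, six per group, received 10^5 L1210 cells i.p. on day 0. Compounds in hydroxypropylcellulose, saline/Tween 80 or saline were given i.p. at various doses once daily on days 1-9, with vehicle controls.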

[4] = test system: colon tumors; details: in vivo; cited from earlier work
[5] = test system: melanotic melanoma B16; assay: Melanotic Melanoma B16 test, survival of tumored mice; format: in vivo, B6C3F1 mice; details: for T/C × 100 (median survival time): 9 days, 2 tests
Method: The efficacy of the compounds of this invention against the transplanted mouse tumors was evaluated in test systems currently in use at the National Cancer Institute for the detection and assessment of anticancer activity. […] J. Cancer, 17, 129-142, (1981); Venditti, J. M., Seminars in Oncology, 8 (4) (1981); Goldin, A. and J. M. Venditti, in Recent Results in Cancer Research, 70, S. K. Carter and Y. Sakurai, Eds., Springer-Verlag, Berlin/Heidelberg, 1980].
The animals used were B6 C3 F1 mice, all of one sex, weighing a minimum of 18 g for males and 17 g for females and all within a 4 g weight range at the start of the test. The test group comprised 9 or 10 mice. The tumor was implanted in each of the test mice by the subcutaneous injection of 0.5 ml of a tumor homogenate prepared by homogenizing a 1 g portion of melanotic melanoma in 10 ml of cold physiological saline. The test compounds suspended in hydroxypropylcellulose were administered intraperitoneally at various doses once daily for nine consecutive days starting on day one relative to the day of tumor inoculation (day 0). The control mice received injections of hydroxypropylcellulose vehicle only. The mice were weighted and survivors were recorded on a regular basis for 60 days. The median survival times and the ratio of the median survival times for treated (T) to control (C) mice were calculated. The median survival time of the nontreated tumored mice ranged from 15 to 17 days. Drug effectiveness was assessed on the basis of the survival time. Results were expressed as a percentage of the control survival time (Survival Time T/C ×100%). The criterion for effectiveness was determined by: T/C ×100 ≥125 percent.

[6] = test system: NF mouse sarcoma; details: in vitro; cited from earlier work
[7] = test system: liver tissue; details: cited from earlier work

Compound: O=c1[nH]cc(F)c(=O)[nH]1 [5-Fluorouracil, reference compound]
- IC50 [1]: 0.27 µg/mL (≈ 2.08 µM)
- effectiveness ([2]; 20 mg/kg i.p.): ineffective
- Average Tumor Weight, Day 7 (day treatment was started) ([2]; 20 mg/kg i.p. once daily): 56.7 mg
- Average Tumor Weight, Day 21 ([2]; 20 mg/kg i.p. once daily): 421.7 mg
- Net Tumor Weight gain, Day 21 ([2]; 20 mg/kg i.p. once daily): 365 mg
- Tumor Growth Inhibition, Day 21 ([2]; 20 mg/kg i.p. once daily): 0%
- toxicity [2]: Toxic
- toxicity ([2]; listed as 5-Fluorouacil): toxic
- response vs control in vivo at 16 mg/kg ([3]; read-out: L1210 Leukemia % T/C (median survival time)): 228%
- effectiveness in treatment of colon tumors in man [4]: not consistently effective

Compound: N.N.[Cl][Pt][Cl] [Cisplatin, reference compound]
- in vitro HCT-15 ID50 (50 percent inhibition of number of doublings) [1]: 0.66 µg/mL
- T/C × 100 (median survival time) ([5]; 1 mg/kg i.p. once daily): 175%
- T/C × 100 (median survival time) ([5]; 2 mg/kg i.p. once daily): 212% and 136%

Compound: Cc1c(-c2ccc(C3CCCCC3)cc2)nc2ccc(F)cc2c1C(=O)O [Example 1, 2-(4-Cyclohexylphenyl)-6-fluoro-3-methylquinoline-4-carboxylic acid]
- in vitro HCT-15 ID50 (50 percent inhibition of number of doublings) [1]: 0.05 µg/mL
- Average Tumor Weight, Day 7 (day treatment was started) ([2]; 50 mg/kg i.p. once daily): 56.3 mg
- Average Tumor Weight, Day 21 ([2]; 50 mg/kg i.p. once daily): 252.9 mg
- Net Tumor Weight gain, Day 21 ([2]; 50 mg/kg i.p. once daily): 196.6 mg
- Tumor Growth Inhibition, Day 21 ([2]; 50 mg/kg i.p. once daily): 33.1%
- Average Tumor Weight, Day 7 (day treatment was started) ([2]; 100 mg/kg i.p. once daily): 56.6 mg
- Average Tumor Weight, Day 21 ([2]; 100 mg/kg i.p. once daily): 212.9 mg
- Net Tumor Weight gain, Day 21 ([2]; 100 mg/kg i.p. once daily): 156.3 mg
- Tumor Growth Inhibition, Day 21 ([2]; 100 mg/kg i.p. once daily): 46.8%
- Average Tumor Weight, Day 7 (day treatment was started) ([2]; 200 mg/kg i.p. once daily): 56.8 mg
- Average Tumor Weight, Day 21 ([2]; 200 mg/kg i.p. once daily): 156.3 mg
- Net Tumor Weight gain, Day 21 ([2]; 200 mg/kg i.p. once daily): 99.4 mg
- Tumor Growth Inhibition, Day 21 ([2]; 200 mg/kg i.p. once daily): 66.2%
- T/C × 100 (median survival time) ([5]; 25 mg/kg i.p. once daily): 127% and 125%
- T/C × 100 (median survival time) ([5]; 50 mg/kg i.p. once daily): 148% and 138%
- T/C × 100 (median survival time) ([5]; 100 mg/kg i.p. once daily): 145% and 155%
- T/C × 100 (median survival time) ([5]; 200 mg/kg i.p. once daily): 145% and 150%
- T/C × 100 (median survival time) ([5]; 400 mg/kg i.p. once daily): 131% and 179%
- effectiveness against B16 melanoma in mice ([5]; criterion T/C × 100 ≥125 percent): effective against the B16 melanoma in mice
- response vs control in vivo at 200 mg/kg ([3]; 200 mg/kg i.p., read-out: L1210 Leukemia % T/C (median survival time)): 189%

Compound: Cc1c(-c2ccc(C3CCCCC3)cc2)nc2ccc(F)cc2c1C(=O)[O-].[Na+] [Example 91, Sodium 2-(4-Cyclohexylphenyl)-6-fluoro-3-methylquinoline-4-carboxylate]
- IC50 [1]: 0.04 µg/mL
- Average Tumor Weight, Day 7 (day treatment was started) ([2]; 10 mg/kg i.p. once daily): 56.8 mg
- Average Tumor Weight, Day 21 ([2]; 10 mg/kg i.p. once daily): 322.8 mg
- Net Tumor Weight gain, Day 21 ([2]; 10 mg/kg i.p. once daily): 266.0 mg
- Tumor Growth Inhibition, Day 21 ([2]; 10 mg/kg i.p. once daily): 10.0%
- Average Tumor Weight, Day 7 (day treatment was started) ([2]; 20 mg/kg i.p. once daily): 56.2 mg
- Average Tumor Weight, Day 21 ([2]; 20 mg/kg i.p. once daily): 245.1 mg
- Net Tumor Weight gain, Day 21 ([2]; 20 mg/kg i.p. once daily): 188.9 mg
- Tumor Growth Inhibition, Day 21 ([2]; 20 mg/kg i.p. once daily): 35.7%
- Average Tumor Weight, Day 7 (day treatment was started) ([2]; 40 mg/kg i.p. once daily): 56.8 mg
- Average Tumor Weight, Day 21 ([2]; 40 mg/kg i.p. once daily): 256.9 mg
- Net Tumor Weight gain, Day 21 ([2]; 40 mg/kg i.p. once daily): 200.1 mg
- Tumor Growth Inhibition, Day 21 ([2]; 40 mg/kg i.p. once daily): 32.0%
- response vs control in vivo at 40 mg/kg ([3]; read-out: L1210 Leukemia % T/C (median survival time), 40 mg/kg i.p., marked * (not explained)): 140%
- response vs control in vivo at 100 mg/kg ([3]; read-out: L1210 Leukemia % T/C (median survival time), 100 mg/kg i.p., nonoptimal Q1DX9 instead of Q3DX9): 103%

Compound: O=C(O)c1cc(-c2ccccc2)nc2ccccc12 [cinchophen, 2-phenyl-4-quinoline carboxylic acid]
- tumoricidal effect [6]: no tumoricidal effect
- degeneration of liver tissue [7]: can produce a degeneration of liver tissue of a possible precancerous nature
